Read-outs that look alike come from different tables or passages of the source.
Experiments:
wt HIV-1 RT [1] = biological target: T1, wt HIV-1 RT (Human immunodeficiency virus type 1 group M subtype B, UniProt P04585); experiment: Chain elongation/termination assay; format: biochemical; details: for chain termination / full-length products, in words: HIV-PBS template, dPR primer, raising inhibitor concentration
T1 construct: Wild type (wt) version of recombinant HIV-1 RT were expressed with a histidine tag; histidine tag; made in house; host or cells: E. coli
Protocol: RT inhibition assay. The inhibition of HIV-1 RT RNA dependent DNA polymerase activity of DXG-TP was assessed under steady-state enzymatic kinetics by employing homopolymeric RNA templates/DNA primers (T/P) and a heteropolymeric RNA template/DNA primer. The heteropolymeric RNA template contains the HIV-1 primer binding sequence, US and R regions (designated as HIV-PBS). […] The oligodeoxynucleotide primer (dPR) is an 18-mer (5′-[…]-3′) which is complementary to the HIV-1 primer binding sequence. […] Inhibition of dNTP incorporation/chain termination. […] HIV-PBS RNA template and dPR DNA primer were used in this system. The RT reactions were performed in […] containing 50 mM Tris (pH 7.8), 75 mM KCl, 10 mM MgCl2, 100 μM of dNTPs. […] The reactions were allowed to proceed at 37° C. for 60 min in the presence or absence of inhibitors. The transcribed DNA products were separated on a 5% denaturing polyacrylamide gel and visualized by exposure to X-ray film.
The chain elongation/termination assay provides a method to directly visualize the products of incorporation of dideoxynucleotide monophosphates into nascent DNA by monitoring the reaction products using polyacrylamide gel electrophoresis. The experiment was performed using wt HIV-1 RT, and HIV-PBS heteropolymeric template, and [^32p]ATP labeled dPR primer in the presence of various concentrations of RT inhibitor. […] As comparison, NNRTI nevirapine was also used in the assay.

wt HIV-1 RT [2] = biological target: T1, wt HIV-1 RT; experiment: RT inhibition assay, RNA dependent DNA polymerase activity; format: biochemical
Protocol: Wild type (wt) version of recombinant HIV-1 RT were expressed with a histidine tag in an E. coli protein expression system.
RT inhibition assay. The inhibition of HIV-1 RT RNA dependent DNA polymerase activity of DXG-TP was assessed under steady-state enzymatic kinetics by employing homopolymeric RNA templates/DNA primers (T/P) and a heteropolymeric RNA template/DNA primer. The heteropolymeric RNA template contains the HIV-1 primer binding sequence, US and R regions (designated as HIV-PBS). […] The oligodeoxynucleotide primer (dPR) is an 18-mer (5′-[…]-3′) which is complementary to the HIV-1 primer binding sequence. […] The reverse transcription reaction contained final concentrations of 50 mM Tris-HCl, pH 7.8, 60 mM KCl, 10 mM MgCl2, 0.1 U/ml homopolymeric T/P and 5 μM [^3H]dNTP substrate or 25 nM HIV-PBS/dPR and 5 μM each of dTTP, dCTP, dGTP and [-^32P]dATP in […]. […] Inhibition of dNTP incorporation/chain termination. The effect of DXG-TP on RT activity was also assessed using the chain termination/dNTP incorporation assay in which inhibition of nascent DNA synthesis (chain termination) was monitored based upon cDNA synthesis as previously described (Arts et al., 1993; J. Biol. Hem. 269:14672-14680 and Gu et al., 1995, Proc. Natl. Acad. Sci. USA 92:2760-2764). HIV-PBS RNA template and dPR DNA primer were used in this system. The RT reactions were performed in […] containing 50 mM Tris (pH 7.8), 75 mM KCl, 10 mM MgCl2, 100 μM of dNTPs. The HIV-PBS RNA template (50 nM) and [−^32P]-ATP labeled oligodeoxynucleotide primer (125 nM) were included in the reaction. The mixture was first denatured at 85° C. for 2 minutes, then cooled to 55° C. for 8 min, and finally cooled to 37° C. at which time recombinant HIV RT was added (42.5 nM). The reactions were allowed to proceed at 37° C. for 60 min in the presence or absence of inhibitors. The transcribed DNA products were separated on a 5% denaturing polyacrylamide gel and visualized by exposure to X-ray film.

[3] = Cytotoxicity, [3H]-thymidine uptake, HT-1080; format: cell-based; details: human, HT-1080 cells
Protocol: (§1) The cellular toxicity of the BCH compounds were assessed on various cells using [^3H]-thymidine uptake. The various cells, including Molt-4, HT1080, DU-145, HepG 2 and HSF, were plated at a concentration of 1-2×10^3 cells per well (96 well plates). However, PHA-stimulated PBMCs were cultured at a concentration of 4×10^4. After a 24 hr incubation period, 10-fold serial diluted compounds (10^−4 M to 10^−10 M) were added to the culture medium and the cells were further incubated for 72 hrs. [^3H]-thymidine was added during the final 18 hr incubation period. After incubation with the [^3H]-thymidine, the cells were washed once with PBS, treated with trypsin it the cells were adherent, and then resuspended in water (hypotonic lysing of cells) The cellular extract was applied directly to a Tomtec Harvester 96. Using this instrument the extracted DNA is adsorbed onto filters, washed and the incorporated [^3H]-thymidine is then counted.

[4] = Cytotoxicity, WST-1 cell viability assay; format: cell-based, human; details: human, CBMCs, MT-2, H9, Jurkat and U937 cells; WST-1 cell viability assay
Protocol: The cellular toxicity of the compounds was also tested by WST-1 staining through assessing proliferation of MT-2, H9, Jurkat, U937, and CBMCs. The established cell lines were cultured in RPMI medium in 96-well plates at a density of 5×10^4 cells/well while CBMCs were plated at a concentration of 0.5×10^6/well. A 10-fold serial diluted (10^−4−10^−7 M) compound was added at day zero. At day 4, the cells were passaged by changing half medium containing appropriately diluted compound. The cell activities were assessed at day 7 using the WST-1 reagent (Boehringer Mannheim) following the protocol provided by the supplier.

[5] = Cytotoxicity, [3H]-thymidine uptake, Molt-4; format: cell-based; details: human, Molt-4 cells
Protocol: as §1

[6] = Cytotoxicity, [3H]-thymidine uptake, DU145; format: cell-based; details: human, DU145 cells
Protocol: as §1

[7] = Cytotoxicity, [3H]-thymidine uptake, HSF; format: cell-based; details: human, human skin fibroblasts (HSF)
Protocol: as §1

[8] = Cytotoxicity, [3H]-thymidine uptake, HepG2; format: cell-based; details: human, HepG2 cells
Protocol: as §1

HIV-1IIIB = experiment: Anti-HIV-1 antiviral assay, laboratory strain HIV-1IIIB, RT activity in culture supernatants
Protocol: Most experiments were performed with a laboratory strain HIV-1III. […] The cells were incubated with virus using the indicated multiplicity of infection (MOI) for 2-3 hrs. The MOI used for each experiment was dependent upon the cell line and virus strain used, and was generally in the range of 0.005 to 0.5. For example, in assays performed using the established cell line MT-2, HIV-1IIIB at an MOI of 0.005 was used to infect cells. The unbound virus was then removed by washing the cells, followed by plating the cells into a 96-well plate. The infected cells were cultured in the presence of a serial concentrations of the test compound for 5-7 days. The anti-HIV-1 efficacy was determined by testing for HIV-1 RT activity in the cell culture supernatants. All assays were performed in duplicate and at least two independent experiments were performed. […] The susceptibilities of the HIV-1 variants to antiretroviral agents are expressed as the mean of the EC50 determinations.

[9] = tested on: recombinant HXB2-D 10R/46I/63P/82T/84V; experiment: microbe, parasite or virus in culture; format: cell-based, HIV-1; details: Human immunodeficiency virus 1, HXB2, read-out: EC50 in CBMCs
Protocol: (§2) HIV-1IIIB laboratory strain and HXB2-D recombinant of HIV-1 were kindly supplied by R. C. Gallo (Institute of Human Virology, Baltimore, Md.). […] The recombinant viruses were generated by transfection of proviral DNA into MT-4 cells with Lipofectamine using the protocol recommended by the manufacturer .(Gibco BRL, Montreal, Canada). […] Stock viruses were prepared from clarified culture supernatants by centrifugation and stored at −70° C. The viruses were titrated by limited dilution with a 4-fold serial dilution.

[10] = tested on: HIV-1 clinical isolate 4833; experiment: microbe, parasite or virus in culture; format: cell-based
Protocol: as §2
(§3) The population of HIV-1 in infected individual is quasispecies and the sensitivity of these different viruses found in clinical isolates to antiviral chemotherapy might be quite variable. In addition, HIV-1 isolates obtained from patients receiving long-term antiretroviral therapy might behave differently from cloned virus containing genetically engineered mutations in the RT gene. For these reasons, clinical isolates of HIV-1 from antiviral naive and drug-treated patients were assayed in PHA-stimulated CBMCs for their sensitivity to DXG and DAPD accompanied with approved antiretroviral agents. The genotype of the HIV-1 clinical isolates were determined as described above.

[11] = tested on: HIV-1 clinical isolate 4526; experiment: Antiviral assay, HIV-1 clinical isolate 4526, CBMCs; format: cell-based; details: Human immunodeficiency virus 1, naive
Protocol: as §2, §3

recombinant HXB2-D 65R = experiment: microbe, parasite or virus in culture; format: cell-based, HIV-1; details: Human immunodeficiency virus 1, HXB2, read-out: EC50 in CBMCs
Protocol: as §2

[12] = tested on: recombinant HXB2-D 41L/215Y/184V; experiment: microbe, parasite or virus in culture; format: cell-based, HIV-1; details: Human immunodeficiency virus 1, HXB2, read-out: EC50 in CBMCs
Protocol: as §2

recombinant HXB2-D 184V = experiment: microbe, parasite or virus in culture; format: cell-based, HIV-1; details: Human immunodeficiency virus 1, HXB2, read-out: EC50 in CBMCs
Protocol: as §2

[13] = tested on: recombinant HXB2-D 41L/70R/215Y/219Q; experiment: microbe, parasite or virus in culture; format: cell-based, HIV-1; details: Human immunodeficiency virus 1, HXB2, read-out: EC50 in CBMCs
Protocol: as §2

recombinant HXB2-D 74V = experiment: microbe, parasite or virus in culture; format: cell-based, HIV-1; details: Human immunodeficiency virus 1, HXB2, read-out: EC50 in CBMCs
Protocol: as §2

[14] = Cytotoxicity, [3H]-thymidine uptake, PBMC; format: cell-based; details: human, PHA-stimulated PBMCs
Protocol: as §1

[15] = template/primer poly(rA).oligo(dT)12-18, substrate dTTP
[16] = Human immunodeficiency virus 1, Jurkat, read-out: EC50, mean values ± SD
[17] = Human immunodeficiency virus 1, MT2, read-out: EC50, mean values ± SD
[18] = Human immunodeficiency virus 1, MT4, read-out: EC50, mean values ± SD
[19] = Human immunodeficiency virus 1, read-out: EC50, mean values ± SD
[20] = template/primer HIV-PBS/dPR, substrate dNTPs, each 5 μM
[21] = template/primer poly(rC).oligo(dG)12-15, substrate dGTP

Compound: Nc1ccn([C@@H]2CS[C@H](COP(=O)(O)OP(=O)(O)OP(=O)(O)O)O2)c(=O)n1 [lamivudine-TP]
- chain termination / full-length products, in words (wt HIV-1 RT [1]): caused increasing chain termination but decreasing full-length products

Compound: Cc1cn([C@H]2C[C@H](N=[N+]=[N-])[C@@H](COP(=O)(O)OP(=O)(O)OP(=O)(O)O)O2)c(=O)[nH]c1=O [AZT-TP]
- chain termination / full-length products, in words (wt HIV-1 RT [1]): caused increasing chain termination but decreasing full-length products

Compound: Cc1cn([C@H]2CC[C@@H](COP(=O)(O)OP(=O)(O)OP(=O)(O)O)O2)c(=O)[nH]c1=O [ddTTP, reference compound]
- IC50 (wt HIV-1 RT [2]; [15]): 24 ± 3 nM

Compound: Cc1cn([C@H]2C[C@H](N=[N+]=[N-])[C@@H](CO)O2)c(=O)[nH]c1=O [AZT, zidovudine, reference compound]
- CC50 at 72 h [3]: 5000 nM
- CC50 at 7 days [4]: 74000 nM
- CC50 at 72 h [5]: 3000 nM
- CC50 at 72 h [6]: > 10000 nM
- CC50 at 72 h [7]: > 10000 nM
- CC50 at 72 h [8]: 3000 nM
- EC50 (HIV-1IIIB; [16]): 11 ± 7 nM
- EC50 (HIV-1IIIB; [17]): 7.6 ± 4.4 nM
- EC50 (HIV-1IIIB; [18]): 8 ± 5 nM
- EC50 (HIV-1IIIB; Human immunodeficiency virus 1, U-937): 25 nM
- EC50 (HIV-1IIIB; [19]): 5.1 ± 3 nM

Compound: CC(C)(C)NC(=O)[C@@H]1C[C@@H]2CCCC[C@@H]2CN1C[C@@H](O)[C@H](Cc1ccccc1)NC(=O)[C@H](CC(N)=O)NC(=O)c1ccc2ccccc2n1 [saquinavir, reference compound]
- EC50 [9]: 75 nM
- decreased sensitivity compared to the baseline isolate 4526 [10]: about 20 fold
- EC50 ([10]; Human immunodeficiency virus 1, therapy Saquinavir (48 weeks), read-out: EC50 in CBMCs): 110 nM
- EC50 [11]: 6.3 nM

Compound: Nc1nc2c(ncn2[C@H]2CC[C@@H](COP(=O)(O)OP(=O)(O)OP(=O)(O)O)O2)c(=O)[nH]1 [ddGTP, dideoxyguanosine triphosphate, reference compound]
- IC50 (wt HIV-1 RT [2]; [20]): 74 ± 8 nM
- IC50 (wt HIV-1 RT [2]; [21]): 11 ± 0.7 nM

Compound: Nc1nc2c(ncn2C2COC(COP(=O)(O)OP(=O)(O)OP(=O)(O)O)O2)c(=O)[nH]1 (stereo not shown) [DXG-TP, DXG 5′-triphosphate]
- mode of RT inhibition, in words (wt HIV-1 RT [2]): competition with natural substrate
- IC50 (wt HIV-1 RT [2]; [20]): 62 ± 7 nM
- IC50 (wt HIV-1 RT [2]; [15]): > 10000 nM
- IC50 (wt HIV-1 RT [2]; [21]): 12 nM
- chain termination / full-length products, in words (wt HIV-1 RT [1]): caused increasing chain termination but decreasing full-length products
- inhibitory effect on RT activity by band intensity, compared, in words (wt HIV-1 RT [1]; cell-free assay): the same as ddGTP and AZT-TP at the same concentrations, but higher than lamivudine-TP

Compound: (+) enantiomer of -D-1′,3′-dioxolane guanosine
- EC50 (HIV-1IIIB; read-out: EC50, mean values ± SD, MT-2 cells, HIV-1IIIB): 700 nM

Compound: Nc1ccn([C@@H]2CS[C@H](CO)O2)c(=O)n1 [lamivudine, reference compound]
- EC50 (recombinant HXB2-D 65R): 360 ± 170 nM
- EC50 [12]: > 50000 nM
- EC50 (recombinant HXB2-D 184V): > 50000 nM
- EC50 [13]: 62 ± 20 nM
- EC50 (recombinant HXB2-D 74V): 120 ± 70 nM
- CC50 at 72 h [3]: > 500000 nM
- CC50 at 72 h [6]: > 500000 nM
- CC50 at 72 h [7]: 400000 nM
- CC50 at 72 h [8]: 350000 nM
- EC50 (HIV-1IIIB; [16]): 530 ± 20 nM
- EC50 (HIV-1IIIB; [17]): 91 ± 80 nM
- EC50 (HIV-1IIIB; [18]): 56 ± 14 nM
- EC50 (HIV-1IIIB; [19]): 23 ± 11 nM

Compound: Nc1ccn([C@H]2CC[C@@H](CO)O2)c(=O)n1 [ddC, 2′,3′-dideoxycytidine]
- CC50 at 72 h [3]: 2000 nM
- CC50 at 7 days [4]: 29000 nM
- CC50 at 72 h [5]: 2000 nM
- CC50 at 72 h [6]: 5000 nM
- CC50 at 72 h [8]: 7000 nM
- CC50 at 72 h [14]: 32500 nM
